Patent publication US12673933B2, “Aminopyrazine compounds as HPK1 inhibitor and the use thereof” (BEIGENE, LTD., priority 2019, dated 2026)

target: T1, HPK1 kinase (aa1-346, Life Technologies) (Homo sapiens, UniProt Q92918); assay: HPK Kinase Activity Assay at 1 mM ATP (TR-FRET); assay type: biochemical; settings: HPK1 kinase 40 nM, 0.5 μM STK1 substrate, read-out: Enzymatic activity IC50
T1 construct: HPK1 kinase (aa1-346, Life Technologies); purchased Life Technologies
T1 sequence (Q92918 1-346): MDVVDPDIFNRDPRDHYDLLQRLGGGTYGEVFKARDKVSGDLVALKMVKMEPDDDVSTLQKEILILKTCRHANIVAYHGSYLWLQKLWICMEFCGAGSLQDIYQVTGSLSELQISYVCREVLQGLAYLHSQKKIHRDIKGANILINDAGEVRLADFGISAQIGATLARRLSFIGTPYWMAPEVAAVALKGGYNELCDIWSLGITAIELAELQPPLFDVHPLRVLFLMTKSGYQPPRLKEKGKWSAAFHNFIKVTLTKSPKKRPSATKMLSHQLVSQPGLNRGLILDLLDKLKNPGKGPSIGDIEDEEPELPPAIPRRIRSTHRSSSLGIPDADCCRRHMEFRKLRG
Method: HPK Kinase Activity Assay at 1 mM ATP
Compounds disclosed herein were tested for inhibition of HPK1 kinase (aa1-346, Life Technologies) activity in assays based on the time-resolved fluorescence-resonance energy transfer (TR-FRET) methodology. The assays were carried out in 384-well low volume black plates in a reaction mixture containing HPK1 kinase (40 nM), 1 mM ATP, 0.5 μM STK1 substrate and 0-10 μM compound in buffer containing 50 mM HEPES, 0.01% BSA, 0.1 mM Orthovanadate, 10 mM MgCl2, 1 mM DTT, pH=7.0, 0.005% Tween-20. The kinase was incubated with the compounds disclosed herein or DMSO for 60 minutes at room temperature and the reaction was initiated by the addition of ATP and STK1 substrate. After reaction at room temperature for 120 minutes, an equal volume of stop/detection solution was added according to the manufacture's instruction (CisBio). The stop/detection solution contained STK Antibody-Cryptate and XL665-conjugated streptavidin in Detection Buffer. The TR-FRET signals (ratio of fluorescence emission at 665 nm over emission at 620 nm with excitation at 337 nm wavelength) were recorded on a PHERAstar FS plate reader (BMG Labtech). Phosphorylation of STK1 substrate led to the binding of STK Antibody-Cryptate to the biotinylated STK1 substrate, which places fluorescent donor (Eu^3+ crypate) in close proximity to the accepter (Streptavidin-XL665), thus resulting in a high degree of fluorescence resonance energy transfer. The inhibition of HPK1 in presence of increasing concentrations of compounds was calculated based on the ratio of fluorescence at 665 nm to that at 620 nm. The IC50 for each compound was derived from fitting the data to the four-parameter logistic equation by Graphpad Prism software.

SMILES | IC50
Cc1cc(-c2cnc(N)c(Oc3cnn(C4CCN(C)C4)c3)n2)cc2c1CCN(C)C2 (single isomer, unassigned) [Example 280A] | 0.012 µM
Cc1cc(-c2cnc(N)c(Oc3cnn(C4CCN(C)C4)c3)n2)cc2c1CCN(C)C2 (single isomer, unassigned) [Example 280B] | 0.051 µM
Cc1cc(-c2cnc(N)c(OCc3ccncc3)n2)cc2c1CCN(C)C2 [Example 1, 5-(2,5-dimethyl-1,2,3,4-tetrahydroisoquinolin-7-yl)-3-(pyridin-4-ylmethoxy)pyrazin-2-amine] | 0.029 µM
Cc1cc(-c2cnc(N)c(OCc3ccncn3)n2)cc2c1CCN(C)C2 [Example 3, 5-(2,5-dimethyl-1,2,3,4-tetrahydroisoquinolin-7-yl)-3-(pyrimidin-4-ylmethoxy)pyrazin-2-amine] | 0.364 µM
Cc1cc(-c2cnc(N)c(-n3ncc4cc(CO)ccc43)n2)cc2c1CCN(C)C2 [Example 4, (1-(3-amino-6-(2,5-dimethyl-1,2,3,4-tetrahydroisoquinolin-7-yl)pyrazin-2-yl)-1H-indazol-5-yl)methanol] | 0.075 µM
Cc1cc(-c2cnc(N)c(-n3cc4cc(CO)ccc4n3)n2)cc2c1CCN(C)C2 [Example 5, (2-(3-amino-6-(2,5-dimethyl-1,2,3,4-tetrahydroisoquinolin-7-yl)pyrazin-2-yl)-2H-indazol-5-yl)methanol] | 0.172 µM
Cc1cc(-c2cnc(N)c(-n3cc(O)cn3)n2)cc2c1CCN(C)C2 [Example 7, 1-(3-amino-6-(2,5-dimethyl-1,2,3,4-tetrahydroisoquinolin-7-yl)pyrazin-2-yl)-1H-pyrazol-4-ol] | 0.015 µM
Cc1cc(-c2cnc(N)c(OCc3ccncc3F)n2)cc2c1CCN(C)C2 [Example 8, 5-(2,5-dimethyl-1,2,3,4-tetrahydroisoquinolin-7-yl)-3-((3-fluoropyridin-4-yl)methoxy)pyrazin-2-amine] | 0.046 µM
Cc1cnccc1COc1nc(-c2cc(C)c3c(c2)CN(C)CC3)cnc1N [Example 9, 5-(2,5-dimethyl-1,2,3,4-tetrahydroisoquinolin-7-yl)-3-((3-methylpyridin-4-yl)methoxy)pyrazin-2-amine] | 0.017 µM
Cc1cc(-c2cnc(N)c(OCc3ccnc(N)c3)n2)cc2c1CCN(C)C2 [Example 10, 3-((2-aminopyridin-4-yl)methoxy)-5-(2,5-dimethyl-1,2,3,4-tetrahydroisoquinolin-7-yl)pyrazin-2-amine] | 0.0052 µM
Cc1cc(-c2cnc(N)c(OCc3ccnc(C#CC4CC4)c3)n2)cc2c1CCN(C)C2 [Example 11, 3-((2-(cyclopropylethynyl)pyridin-4-yl)methoxy)-5-(2,5-dimethyl-1,2,3,4-tetrahydroisoquinolin-7-yl)pyrazin-2-amine] | 0.05 µM
Cc1cc(-c2cnc(N)c(OCc3cc(Cl)ncc3OC(C)C)n2)cc2c1CCN(C)C2 [Example 12, 3-((2-chloro-5-isopropoxypyridin-4-yl)methoxy)-5-(2,5-dimethyl-1,2,3,4-tetrahydroisoquinolin-7-yl)pyrazin-2-amine] | 0.027 µM
Cc1cc(-c2cnc(N)c(OC3CCc4cnccc43)n2)cc2c1CCN(C)C2 (stereo not shown) [Example 13, 3-(6,7-dihydro-5H-cyclopenta[c]pyridin-5-yloxy)-5-(2,5-dimethyl-1,2,3,4-tetrahydroisoquinolin-7-yl)pyrazin-2-amine] | 0.062 µM
Cc1cc(-c2cnc(N)c(OCc3ccnc(C#CC(C)(C)O)c3)n2)cc2c1CCN(C)C2 [Example 14, 4-(4-(((3-amino-6-(2,5-dimethyl-1,2,3,4-tetrahydroisoquinolin-7-yl)pyrazin-2-yl)oxy)methyl)pyridin-2-yl)-2-methylbut-3-yn-2-ol] | 0.0094 µM
Cc1cc(-c2cnc(N)c(OCc3cccnc3)n2)cc2c1CCN(C)C2 [Example 15, 5-(2,5-dimethyl-1,2,3,4-tetrahydroisoquinolin-7-yl)-3-(pyridin-3-ylmethoxy)pyrazin-2-amine] | 0.157 µM
Cc1cc(-c2cnc(N)c(OCc3c(Cl)cccc3Cl)n2)cc2c1CCN(C)C2 [Example 17, 3-((2,6-dichlorobenzyl)oxy)-5-(2,5-dimethyl-1,2,3,4-tetrahydroisoquinolin-7-yl)pyrazin-2-amine] | 0.231 µM

SMILES | IC50
Cc1cc(-c2cnc(N)c(OCc3ccccc3)n2)cc2c1CCN(C)C2 [Example 18, 3-(benzyloxy)-5-(2,5-dimethyl-1,2,3,4-tetrahydroisoquinolin-7-yl)pyrazin-2-amine] | 0.073 µM
Cc1cc(-c2cnc(N)c(OCc3ccnc(C#Cc4cccnc4)c3)n2)cc2c1CCN(C)C2 [Example 19, 5-(2,5-dimethyl-1,2,3,4-tetrahydroisoquinolin-7-yl)-3-((2-(pyridin-3-ylethynyl)pyridin-4-yl)methoxy)pyrazin-2-amine] | 0.098 µM
Cc1cc(-c2cnc(N)c(OCc3ccnc(C#Cc4ccc(F)cc4)c3)n2)cc2c1CCN(C)C2 [Example 20, 5-(2,5-dimethyl-1,2,3,4-tetrahydroisoquinolin-7-yl)-3-((2-((4-fluorophenyl)ethynyl)pyridin-4-yl)methoxy)pyrazin-2-amine] | 0.151 µM
Cc1cc(-c2cnc(N)c(OCc3ccncc3Cl)n2)cc2c1CCN(C)C2 [Example 21, 3-((3-chloropyridin-4-yl)methoxy)-5-(2,5-dimethyl-1,2,3,4-tetrahydroisoquinolin-7-yl)pyrazin-2-amine] | 0.035 µM
Cc1cc(-c2cnc(N)c(OCc3ccnc4ccccc34)n2)cc2c1CCN(C)C2 [Example 22, 5-(2,5-dimethyl-1,2,3,4-tetrahydroisoquinolin-7-yl)-3-(quinolin-4-ylmethoxy)pyrazin-2-amine] | 0.038 µM
Cc1cc(-c2cnc(N)c(OCc3ccnc(C#Cc4ccncc4)c3)n2)cc2c1CCN(C)C2 [Example 23, 5-(2,5-dimethyl-1,2,3,4-tetrahydroisoquinolin-7-yl)-3-((2-(pyridin-4-ylethynyl)pyridin-4-yl)methoxy)pyrazin-2-amine] | 0.137 µM
Cc1cc(-c2cnc(N)c(OCc3ccnc(C#CC(C)(C)C)c3)n2)cc2c1CCN(C)C2 [Example 24, 5-(2,5-dimethyl-1,2,3,4-tetrahydroisoquinolin-7-yl)-3-((2-(3,3-dimethylbut-1-yn-1-yl)pyridin-4-yl)methoxy)pyrazin-2-amine] | 0.061 µM
CC#Cc1cc(COc2nc(-c3cc(C)c4c(c3)CN(C)CC4)cnc2N)ccn1 [Example 25, 5-(2,5-dimethyl-1,2,3,4-tetrahydroisoquinolin-7-yl)-3-((2-(prop-1-ynyl)pyridin-4-yl)methoxy)pyrazin-2-amine] | 0.013 µM
Cc1cc(-c2cnc(N)c(OC3CCCc4cnccc43)n2)cc2c1CCN(C)C2 (stereo not shown) [Example 26, 5-(2,5-dimethyl-1,2,3,4-tetrahydroisoquinolin-7-yl)-3-(5,6,7,8-tetrahydroisoquinolin-5-yloxy)pyrazin-2-amine] | 0.113 µM
Cc1cc(-c2cnc(N)c(OCc3ccnc(N)c3C)n2)cc2c1CCN(C)C2 [Example 29, 3-((2-amino-3-methylpyridin-4-yl)methoxy)-5-(2,5-dimethyl-1,2,3,4-tetrahydroisoquinolin-7-yl)pyrazin-2-amine] | 0.016 µM
Cc1cc(-c2cnc(N)c(OCc3ccncc3OC(C)C)n2)cc2c1CCN(C)C2 [Example 30, 5-(2,5-dimethyl-1,2,3,4-tetrahydroisoquinolin-7-yl)-3-((3-isopropoxypyridin-4-yl)methoxy)pyrazin-2-amine] | 0.0076 µM
Cc1cc(-c2cnc(N)c(OCc3ccnc(N)c3)n2)cc2c1CN(C)CC2 [Example 31, 3-((2-aminopyridin-4-yl)methoxy)-5-(2,8-dimethyl-1,2,3,4-tetrahydroisoquinolin-6-yl)pyrazin-2-amine] | 0.025 µM
Cc1cnc(N)cc1COc1nc(-c2cc(C)c3c(c2)CN(C)CC3)cnc1N [Example 32, 3-((2-amino-5-methylpyridin-4-yl)methoxy)-5-(2,5-dimethyl-1,2,3,4-tetrahydroisoquinolin-7-yl)pyrazin-2-amine] | 0.0051 µM
Cc1cc(-c2cnc(N)c(OCc3ccncc3OCc3ccccc3)n2)cc2c1CCN(C)C2 [Example 33, 3-((3-(benzyloxy)pyridin-4-yl)methoxy)-5-(2,5-dimethyl-1,2,3,4-tetrahydroisoquinolin-7-yl)pyrazin-2-amine] | 0.0082 µM
Cc1cc(-c2cnc(N)c(OCc3ccnc4[nH]ccc34)n2)cc2c1CCN(C)C2 [Example 34, 3-((1H-pyrrolo[2,3-b]pyridin-4-yl)methoxy)-5-(2,5-dimethyl-1,2,3,4-tetrahydroisoquinolin-7-yl)pyrazin-2-amine] | 0.012 µM
